Results taken from US20250145665A1, “MACROCYCLIC PEPTIDES USEFUL AS MODULATORS OF TNF ALPHA” (Bristol-Myers Squibb Company, priority 2023, published 2025).
pIC50: −log10 of the molar value. Read-outs that look alike come from different tables or passages of the source. Starred links: 1 amine or outer side, 2 acyl side, 3 side chain; linkers in the order of their positions; H or OH if unused. Positions of bridges follow the written chain, without caps; N, C: chain ends. Non-standard residues stand in square brackets, D forms with d. Residues, ends and D or L forms follow the SMILES beside them. *: point of attachment. Bip(4'-NHCO-C6H4-4-CH2COOH) = N[C@@H](Cc1ccc(-c2ccc(NC(=O)c3ccc(CC(=O)O)cc3)cc2)cc1)C(=O)O; X5 = Cn1nc(C(=O)Nc2ccc(-c3ccc(C[C@H](N[*:1])C(=O)[*:2])cc3)cc2)c2ccccc21; Bip(4'-NH) = O=C([C@H](Cc1ccc(-c2ccc(N[*:3])cc2)cc1)N[*:1])[*:2]; X71 = O=C(O)Cn1cc(C[C@H](NC(=O)c2cccc(C(=O)O)c2)C(=O)*)c2ccccc21; X45 = CS(=O)(=O)Nc1ccc(CNC(=N)NCCC[C@@H](N[*:1])C(=O)[*:2])cc1; Indazole3carbonyl(1-CH2COOH) = O=C(O)Cn1nc(C(=O)*)c2ccccc21; X54 = N=C(NCCC[C@@H](N[*:1])C(=O)[*:2])NCc1cccc(-n2ccnc2)c1; Bip(4'-COOH) = N[C@@H](Cc1ccc(-c2ccc(C(=O)O)cc2)cc1)C(=O)O; Bip(4'-NHAc) = CC(=O)Nc1ccc(-c2ccc(C[C@H](N)C(=O)O)cc2)cc1; X36 = N=C(NCCC[C@@H](N[*:1])C(=O)[*:2])NCc1cccc(C(=O)O)c1; Ala(imidazol-2-yl) = N[C@@H](Cc1ncc[nH]1)C(=O)O; Ala(morpholin-4-yl) = N[C@@H](CN1CCOCC1)C(=O)O; Benzoyl(3-OCH2COOH) = O=C(O)COc1cccc(C(=O)*)c1; Phe(3-CONH2) = NC(=O)c1cccc(C[C@H](N)C(=O)O)c1; Bip = N[C@@H](Cc1ccc(-c2ccccc2)cc1)C(=O)O; 2Thi = N[C@@H](Cc1cccs1)C(=O)O; Cha = N[C@@H](CC1CCCCC1)C(=O)O; Tle = CC(C)(C)[C@H](N)C(=O)O; Aze = O=C(O)[C@@H]1CCN1; Sar = CNCC(=O)O

Target: TNFα (Homo sapiens, UniProt P01375)
Sequence (P01375 77-233 limits assumed): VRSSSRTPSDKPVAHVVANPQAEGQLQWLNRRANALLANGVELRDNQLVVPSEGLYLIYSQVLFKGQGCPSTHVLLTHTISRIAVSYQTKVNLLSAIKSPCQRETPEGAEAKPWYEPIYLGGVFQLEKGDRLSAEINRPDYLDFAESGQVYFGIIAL
Experiment: TNF-Induced HEK-Blue Assay
Type: cell-based
[1] = HEK-Blue-CD40L cells, NF-kB-driven secreted alkaline phosphatase reporter, TNFα 0.5 ng/ml, 18 h, read-out: TNF induced HEK-Blue assay IC50 value

| pIC50 [1] | SMILES | pIC50 |
| --- | --- | --- |
| 5.70 to 6.70 | CC(C)C[C@@H]1NC(=O)[C@H](CCCNC(=N)N)NC(=O)[C@H](C(C)C)NC(=O)[C@@H]2CCCN2C(=O)[C@H](C(C)C)NC(=O)[C@@H](CCCNC(=N)NCc2cccc(C(=O)O)c2)NC(=O)[C@H](CC(=O)O)NC(=O)[C@@H]2CCCN2C(=O)CN(C)C(=O)[C@H](Cc2ccc(-c3ccc(NC(=O)c4cccc(OCC(=O)O)c4)cc3)cc2)NC(=O)[C@H](Cc2ccc(-c3ccccc3)cc2)NC(=O)[C@H](CN2CCOCC2)NC(=O)CSC[C@@H](C(=O)NCC(N)=O)NC1=O [Example 544] ({CH2CO}-[Ala(morpholin-4-yl)][Bip][Bip(4'-NH)](Benzoyl(3-OCH2COOH))[Sar]PD[X36]VPVRLCG-NH2; thioether N-13) |  |
| > 7.30 | CC[C@H](C)[C@@H]1NC(=O)[C@@H](CCCNC(=N)N)NC(=O)[C@H](CC(=O)O)NC(=O)[C@H](Cc2cnc[nH]2)NC(=O)CN(C)C(=O)[C@H](Cc2ccc(-c3ccc(NC(=O)c4ccc(CC(=O)O)cc4)cc3)cc2)NC(=O)[C@H](Cc2ccc(-c3ccc(C(=O)O)cc3)cc2)NC(=O)[C@H](CC2CCCCC2)NC(=O)CSC[C@@H](C(=O)NCC(N)=O)NC(=O)[C@H](CC(C)C)NC(=O)[C@H](Cc2cccc(C(N)=O)c2)NC(=O)[C@H](C(C)C)NC(=O)[C@@H]2CCCN2C1=O [Example 589] ({CH2CO}-[Cha][Bip(4'-COOH)][Bip(4'-NHCO-C6H4-4-CH2COOH)][Sar]HD[dR]IPV[Phe(3-CONH2)]LCG-NH2; thioether N-13) |  |
| 5.70 to 6.70 | CC(C)C[C@@H]1NC(=O)[C@H](CCCNC(=N)N)NC(=O)[C@H](C(C)C)NC(=O)[C@@H]2CCCN2C(=O)[C@H](C(C)C)NC(=O)[C@@H](CCCNC(=N)N)NC(=O)[C@H](CC(=O)O)NC(=O)[C@@H]2CCCN2C(=O)CN(C)C(=O)[C@H](Cc2ccc(-c3ccccc3)cc2)NC(=O)[C@H](Cc2ccc(-c3ccccc3)cc2)NC(=O)[C@H](CN2CCOCC2)NC(=O)CSC[C@@H](C(=O)NCC(N)=O)NC1=O [Example 202] ({CH2CO}-[Ala(morpholin-4-yl)][Bip][Bip][Sar]PD[dR]VPVRLCG-NH2; thioether N-13) |  |
| > 7.30 | CC(=O)Nc1ccc(-c2ccc(C[C@@H]3NC(=O)[C@H](Cc4ccc(-c5ccccc5)cc4)NC(=O)[C@H](C(C)(C)C)NC(=O)CSC[C@@H](C(=O)NCC(N)=O)NC(=O)[C@H](CC(C)C)NC(=O)[C@H](Cc4cccs4)NC(=O)[C@H](C(C)C)NC(=O)[C@@H]4CCCN4C(=O)[C@H](C(C)C)NC(=O)[C@@H](CCCNC(=N)N)NC(=O)[C@H](CC(=O)O)NC(=O)[C@H](Cc4ccc(O)cc4)NC(=O)CN(C)C3=O)cc2)cc1 [Example 259] ({CH2CO}-[Tle][Bip][Bip(4'-NHAc)][Sar]YD[dR]VPV[2Thi]LCG-NH2; thioether N-13) |  |
| 6.70 to 7.30 | CC(=O)Nc1ccc(-c2ccc(C[C@@H]3NC(=O)[C@H](Cc4ccc(-c5ccc(C(=O)O)cc5)cc4)NC(=O)[C@H](CC4CCCCC4)NC(=O)CSC[C@@H](C(=O)NCC(N)=O)NC(=O)[C@H](CC(C)C)NC(=O)[C@H](Cc4cnc[nH]4)NC(=O)[C@H](C(C)C)NC(=O)[C@@H]4CCN4C(=O)[C@H](C(C)C)NC(=O)[C@@H](CCCNC(=N)N)NC(=O)[C@H](CC(=O)O)NC(=O)[C@H](Cc4ccc(O)cc4)NC(=O)CN(C)C3=O)cc2)cc1 [Example 271] ({CH2CO}-[Cha][Bip(4'-COOH)][Bip(4'-NHAc)][Sar]YD[dR]V[Aze]VHLCG-NH2; thioether N-13) |  |
|  | CC(C)C[C@@H]1NC(=O)[C@H](CCCNC(=N)N)NC(=O)[C@H](C(C)C)NC(=O)[C@@H]2CCCN2C(=O)[C@H](C(C)C)NC(=O)[C@@H](CCCNC(=N)NCc2ccc(NS(C)(=O)=O)cc2)NC(=O)[C@H](CC(=O)O)NC(=O)[C@@H]2CCCN2C(=O)CN(C)C(=O)[C@H](Cc2ccc(-c3ccc(NC(=O)c4nn(CC(=O)O)c5ccccc45)cc3)cc2)NC(=O)[C@H](Cc2ccc(-c3ccccc3)cc2)NC(=O)[C@H](CN2CCOCC2)NC(=O)CSC[C@@H](C(=O)NCC(N)=O)NC1=O [Example 427] ({CH2CO}-[Ala(morpholin-4-yl)][Bip][Bip(4'-NH)](Indazole3carbonyl(1-CH2COOH))[Sar]PD[X45]VPVRLCG-NH2; thioether N-13) | 6.70 to 7.30 |
| 6.70 to 7.30 | CC[C@H](C)[C@@H]1NC(=O)[C@@H](CCCNC(=N)N)NC(=O)[C@H](CC(=O)O)NC(=O)[C@H](Cc2cnc[nH]2)NC(=O)CN(C)C(=O)[C@H](Cc2ccc(-c3ccc(NC(=O)[C@H](Cc4cn(CC(=O)O)c5ccccc45)NC(=O)c4cccc(C(=O)O)c4)cc3)cc2)NC(=O)[C@H](Cc2ccc(-c3ccccc3)cc2)NC(=O)[C@H](CC2CCCCC2)NC(=O)CSC[C@@H](C(=O)NCC(N)=O)NC(=O)[C@H](CC(C)C)NC(=O)[C@H](Cc2ncc[nH]2)NC(=O)[C@H](C(C)C)NC(=O)[C@@H]2CCCN2C1=O [Example 415] ({CH2CO}-[Cha][Bip][Bip(4'-NH)](X71)[Sar]HD[dR]IPV[Ala(imidazol-2-yl)]LCG-NH2; thioether N-13) |  |

| SMILES | pIC50 [1] | pIC50 |
| --- | --- | --- |
| CC(C)C[C@@H]1NC(=O)[C@H](CCCNC(=N)N)NC(=O)[C@H](C(C)C)NC(=O)[C@@H]2CCCN2C(=O)[C@H](C(C)C)NC(=O)[C@@H](CCCNC(=N)NCc2cccc(-n3ccnc3)c2)NC(=O)[C@H](CC(=O)O)NC(=O)[C@@H]2CCCN2C(=O)CN(C)C(=O)[C@H](Cc2ccc(-c3ccc(NC(=O)c4nn(C)c5ccccc45)cc3)cc2)NC(=O)[C@H](Cc2ccc(-c3ccccc3)cc2)NC(=O)[C@H](CN2CCOCC2)NC(=O)CSC[C@@H](C(=O)NCC(N)=O)NC1=O [Example 474] ({CH2CO}-[Ala(morpholin-4-yl)][Bip][X5][Sar]PD[X54]VPVRLCG-NH2; thioether N-13) | 6.70 to 7.30 |  |
